This assay concerns the target ΔF508-CFTR (Homo sapiens (Human), UniProt P13569, DEL508-508). The assay is described as follows: CFTR potentiator assays (membrane potential, IonWorks Quattro, Ussing chamber ion transport). Type of assay: cell-based. To be noted: CFTR EC50 in 'the data measurements described above'; which of the potentiator assays is not stated. From the text: CFTR activity can be quantified by measuring the transmembrane potential. The means for measuring the transmembrane potential in a biological system can employ a number of methods including electrophysiological and optical fluorescence-based membrane potential assays.
The optical membrane potential assay utilises a negatively charged potentiometric dye, such as the FLIPR membrane potential dye (FMP) (see Baxter D F, Kirk M, Garcia A F, Raimondi A, Holmqvist M H, Flint K K, Bojanic D, Distefano P S, Curtis R, Xie Y. ‘A novel membrane potential-sensitive fluorescent dye improves cell-based assays for ion channels.’ J Biomol Screen. 2002 February; 7(1):79-85) which when extracellular is bound to a quenching agent.
Upon cellular depolarisation the negatively charged dye redistributes to the intracellular compartment, unbinding from the membrane impermeant quench agent, yielding an increase in fluorescence. This change in fluorescence is proportional to the change in transmembrane potential which can result from the activity of CFTR. The changes in fluorescence can be monitored in real time by an appropriately equipped fluorescence detector such as the FLIPR (fluorometric imaging plate reader) in 96 or 384-well microtitre plates.
Chinese hamster ovary (CHO) cells stably expressing the AF508-CFTR channel were used for membrane potential experiments. Cells were maintained at 37° C. in 5% v/v CO2 at 100% humidity in Modified Eagles medium (MEM) supplemented with 8% v/v foetal calf serum, 100 μg/ml methotrexate and 100 U/ml penicillin/streptomycin. Cells were grown in 225 cm^2 tissue culture flasks. For membrane potential assays cells were seeded into 96 well plates at 40,000 cells per well, allowed to adhere and then maintained at 26° C. for 48 h to facilitate channel insertion.
The membrane potential screening assay utilised a low chloride ion containing extracellular solution (˜5 mM) combined with a double addition protocol. The first addition was of buffer with or without test compound followed 5 minutes later by an addition of forskolin (1-20 μM)—this protocol favours maximum chloride efflux in response to ΔF508-CFTR activation. The ΔF508-CFTR mediated chloride ion efflux leads to a membrane depolarisation which is optically monitored by the FMP dye.
Low chloride extracellular (mM): 120 Na-gluconate, 1.2 CaCl2), 3.3 KH2PO4, 0.8 K2HPO4, 1.2 MgCl2, 10.0 D-glucose, 20.0 HEPES, pH 7.4 with NaOH FMP dye: made up as per manufacturers' instructions in low chloride extracellular solution detailed above, at 10× final concentration, and stored as 1 mL aliquots at −20° C.
CFTR activity can also be quantified electrophysiologically using the whole-cell configuration of the patch clamp technique (Hamill et al Pflugers Archive 1981). This assay directly measures the currents associated with chloride flow through CFTR channels whilst either maintaining or adjusting the transmembrane voltage. This assay can use either single glass micropipettes or parallel planar arrays to measure CFTR activity from native or recombinant cell systems. Currents measured using parallel planar arrays can be quantified using an appropriately equipped instrument such as the IonWorks Quattro (Molecular Devices) or the Qpatch (Sophion). The Quattro system can measure CFTR currents from either a single cell per recording well (HT configuration) or alternatively from a population of 64 cells per well (Population Patch Clamp PPC) (Finkel A, Wittel A, Yang N, Handran S, Hughes J, Costantin J. ‘Population patch clamp improves data consistency and success rates in the measurement of ionic currents.’ J Biomol Screen. 2006 August; 11(5):488-96).
Chinese hamster ovary (CHO) cells stably expressing the ΔF508-CFTR channel were used for IonWorks Quattro experiments. […]
(In patch-clamp work, channel activity is measured electrically.)

Sequence of ΔF508-CFTR (P13569 other isoform, or with tags, fused parts or gaps del F508-F508): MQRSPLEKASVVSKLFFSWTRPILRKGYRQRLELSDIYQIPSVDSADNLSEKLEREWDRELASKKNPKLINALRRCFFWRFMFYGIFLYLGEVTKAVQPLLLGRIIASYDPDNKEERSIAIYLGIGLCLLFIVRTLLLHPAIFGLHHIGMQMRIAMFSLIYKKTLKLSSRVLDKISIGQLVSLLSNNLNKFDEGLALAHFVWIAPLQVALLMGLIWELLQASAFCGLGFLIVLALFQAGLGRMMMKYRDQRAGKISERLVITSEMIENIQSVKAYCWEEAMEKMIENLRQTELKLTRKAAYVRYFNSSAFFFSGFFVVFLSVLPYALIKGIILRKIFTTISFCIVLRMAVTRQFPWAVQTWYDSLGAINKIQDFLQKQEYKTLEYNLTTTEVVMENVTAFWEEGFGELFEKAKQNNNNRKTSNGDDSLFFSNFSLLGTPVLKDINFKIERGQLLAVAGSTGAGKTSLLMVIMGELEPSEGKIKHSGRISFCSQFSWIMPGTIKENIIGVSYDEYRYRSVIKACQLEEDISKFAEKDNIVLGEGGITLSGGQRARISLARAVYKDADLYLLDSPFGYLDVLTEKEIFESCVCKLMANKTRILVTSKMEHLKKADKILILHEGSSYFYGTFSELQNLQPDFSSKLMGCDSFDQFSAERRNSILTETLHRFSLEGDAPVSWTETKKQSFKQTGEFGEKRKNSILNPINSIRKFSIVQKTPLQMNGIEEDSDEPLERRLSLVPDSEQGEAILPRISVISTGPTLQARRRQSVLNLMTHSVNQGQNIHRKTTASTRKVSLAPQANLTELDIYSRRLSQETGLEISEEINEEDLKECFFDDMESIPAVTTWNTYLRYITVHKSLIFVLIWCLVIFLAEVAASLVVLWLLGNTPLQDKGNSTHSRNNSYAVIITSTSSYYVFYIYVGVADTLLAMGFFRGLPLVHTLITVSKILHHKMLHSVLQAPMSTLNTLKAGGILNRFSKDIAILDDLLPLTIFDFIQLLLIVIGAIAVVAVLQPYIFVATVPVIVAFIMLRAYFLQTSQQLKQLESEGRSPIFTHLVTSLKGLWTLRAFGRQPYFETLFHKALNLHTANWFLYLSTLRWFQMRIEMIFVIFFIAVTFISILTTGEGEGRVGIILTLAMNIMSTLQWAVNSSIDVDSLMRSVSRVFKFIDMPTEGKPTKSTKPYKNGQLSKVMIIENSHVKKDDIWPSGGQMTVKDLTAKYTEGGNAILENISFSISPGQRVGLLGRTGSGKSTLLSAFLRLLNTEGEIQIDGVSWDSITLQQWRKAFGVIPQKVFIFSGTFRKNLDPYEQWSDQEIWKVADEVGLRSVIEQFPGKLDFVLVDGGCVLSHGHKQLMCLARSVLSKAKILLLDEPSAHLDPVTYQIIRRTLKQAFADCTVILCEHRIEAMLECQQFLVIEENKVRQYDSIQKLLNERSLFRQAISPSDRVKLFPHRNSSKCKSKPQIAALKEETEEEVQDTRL

The term EC50 denotes the concentration at which the effect is half-maximal. On to `COc1nc(C(=O)NC[C@](C)(O)C(F)(F)F)c(N)cc1C(F)(F)F` (single isomer, unassigned) [Example 5], for which the EC50 was 50 nM.

The values are drawn from patent US20240058315A1, “Pyridine and Pyrazine derivative for the Treatment of CF, COPD, and Bronchiectasis” (NOVARTIS AG, priority 2019, published 2024).
